Data: patent US20220251109A1, “OXAAZAQUINAZOLINE-7(8H)-KETONE COMPOUND, PREPARATION METHOD THEREFOR AND PHARMACEUTICAL APPLICATION THEREOF” (GENFLEET THERAPEUTICS (SHANGHAI) INC., priority 2019, published 2022)

What was measured:
Type in all cases: cell-based, human
[1] = tested on: NCI-H358 cells (Kras G12C mutation); experiment: Cell proliferation inhibition experiment, 3D model, CellTiter-Glo (NCI-H358); settings: Homo sapiens, NCI-H358, 120 h, NCI-H358, 3D sphere plate, 5 days, 2% FBS
In short: (§1)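 Luminescent ATP read-out (CellTiter-Glo) after 5-day compound treatment gave % inhibition relative to DMSO control and medium blank, fitted four-parameter for IC50. Spheroids were formed overnight in 2% FBS medium from 800 H358 or 400 A549 cells per well; dilutions were 3.16-fold, final DMSO 0.1%.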

[2] = tested on: A549 cells (Kras G12S mutation); experiment: Cell proliferation inhibition experiment, 3D model, CellTiter-Glo (A549); settings: Homo sapiens, A549, 120 h, A549, 3D sphere plate, 5 days, 2% FBS
In short: as §1

[3] = tested on: p-ERK in MIA PaCa2 cells (Kras G12C mutation); experiment: Cell p-ERK detection experiment (HTRF) in MIA PaCa2 cells; settings: Homo sapiens, MIA PaCa-2, 2 h, compound 2 hours
In short: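 MIA PaCa2 cells (KRAS G12C) seeded overnight, then treated 2 h with 3.16-fold compound dilutions (0.1% DMSO). Lysates probed with p-ERK HTRF antibodies for 4 h; inhibition relative to DMSO and blank wells, IC50 from four-parameter fit.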

[4] = tested on: MIA PaCa-2 cells (Kras G12C mutation); experiment: Cell proliferation inhibition experiment, 3D model, CellTiter-Glo (MIA PaCa-2); settings: Homo sapiens, MIA PaCa-2, 120 h, MIA PaCa-2, 3D sphere plate, 5 days; read-out: MIA-PaCa2 IC50
In short: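 3D spheroid model: 200 MIA PaCa-2 cells per well cultured overnight, then treated with a 3.16-fold compound dilution series (0.1% DMSO) for 5 days. Viability read by CellTiter-Glo luminescence. Inhibition rate normalised to DMSO and medium-blank controls; IC50 from four-parameter fit.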

Row | IC50 [1] | IC50 [2] | IC50 [3] | IC50 [4] | Compound
1 | 2 nM | > 10000 nM | 12 nM | 3 nM | C=CC(=O)N1CCN2c3nc(=O)n(-c4c(C5CC5)ncnc4C4CC4)c4nc(-c5c(O)cccc5F)c(F)c(c34)OC[C@H]2C1 [Compound Z99]
2 | 4 nM | > 10000 nM | 48 nM | 10 nM | C=CC(=O)N1CCN2c3nc(=O)n(-c4c(C)ccnc4C(C)C)c4nc(-c5c(O)ccc(F)c5F)c(Cl)c(c34)OC[C@@H]2C1 [Compound Z53]
3 | 3 nM | > 30000 nM | 34 nM | 13 nM | C=CC(=O)N1CCN2c3nc(=O)n(-c4c(OC)ncnc4C(C)C)c4nc(-c5c(O)cccc5F)c(F)c(c34)OC[C@H]2C1 (single isomer, unassigned) [Compound Z111-2]
4 | 7 nM | > 10000 nM | 47 nM | 19 nM | C=CC(=O)N1CCN2c3nc(=O)n(-c4c(C)ccnc4C(C)C)c4nc(-c5cc(F)ccc5F)c(Cl)c(c34)OC[C@@H]2C1 [Compound Z60]
5 | 1 nM | 12800 nM | 9 nM | 2 nM | C=CC(=O)N1CCN2c3nc(=O)n(-c4c(C5CC5)ncnc4C4CC4)c4nc(-c5ccccc5F)c(Cl)c(c34)OC[C@H]2C1 [Compound Z93]
